Here are results for two compounds from US12018172B2, “Sidechain functionalized organosiloxanes, coating compositions containing sidechain functionalized organosiloxanes, coated articles, and methods of making and methods of use thereof” (Adaptive Surface Technologies, Inc., priority 2018, dated 2024).

The series can be described thus: Biocide miscibility screening. It counts as physicochemical. To be noted: 50:50 mixture, 24 hrs. The source says:
Each component was mixed as 50:50 (based on active solids) mixture. The content was allowed to sit for 24 hrs before photographing.

With `N#Cc1c(-c2ccc(Cl)cc2)[nH]c(C(F)(F)F)c1Br` [Econea, Tralopyril 4-bromo-2-(4-chlorophenyl)-5-(trifluoromethyl)-1H-pyrrole-3-carbonitrile], the “Miscibility of Econea and SeaNine 211N with each other” value is reported as “not miscible”; the “Miscibility with AM-14” value is reported as “only partially miscible”; the “Miscibility with AM-24” value is “good miscibility”; the “Miscibility with PDMS (silanol)” value is “only partially miscible”.

For the compound `CCCCCCCCn1sc(Cl)c(Cl)c1=O` [SeaNine 211N, 4,5-Dichloro-2-n-octyl-4-isothiazolin-4-one], the “Miscibility of Econea and SeaNine 211N with each other” value is “not miscible”; the “Miscibility with AM-14” value was “miscible”; the “Miscibility with AM-24” value is reported as “miscible”; the “Miscibility with PDMS (silanol)” value is “did not show complete miscibility”.
